PubChem BioAssay (NCI)
Where “and” joins values, the source holds several entries; their conditions need not be identical. Equal entries are not always repeated.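 96-well plates; 48 h exposure; 5 concentrations. Endpoints by linear interpolation between flanking doses. Not reached: highest tested concentration assigned. At the GI50, growth is halved. TGI: concentration producing complete growth inhibition.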

Assays:
Assay in all cases: inhibition of tumour cell growth, NCI panel, 48 h
[1] = system: SR leukemia
[2] = system: KM20L2 colon
[3] = system: SK-MEL-28 melanoma
[4] = system: LXFL 529 NSCLC
[5] = system: UO-31 renal
[6] = system: 786-0 renal
[7] = system: OVCAR-3 ovarian
[8] = system: HCT-15 colon
[9] = system: NCI/ADR-RES ovarian
[10] = system: PC-3 prostate

SMILES	TGI [1] [µM]	TGI [2] [µM]	TGI [3]	TGI [4] [µM]	TGI [5]	TGI [6]	TGI [7]	TGI [8] [µM]	GI50 [1] [nM]	GI50 [2] [nM]	GI50 [9] [nM]	TGI [9] [nM]	GI50 [3] [nM]	GI50 [4] [nM]	GI50 [5] [nM]	GI50 [6] [nM]	GI50 [7] [nM]	GI50 [8] [nM]	TGI [10] [µM]
Cc1cccc(NC(=O)C(=O)C2C(=O)NC(=O)NC2=O)c1C	> 100	> 100	> 100 µM	> 100	> 100 µM	> 100 µM	> 100 µM	> 100											
C/C1=C\[C@H](C)C[C@H](C)OC(=O)C[C@H](c2ccc(O)cc2)NC(=O)[C@@H](Cc2c(Br)[nH]c3ccccc23)N(C)C(=O)[C@H](C)NC(=O)[C@@H](C)C1	4.21	10.7	0.308 µM and 1.74 µM	3.41	0.351 µM and 0.238 µM	0.384 µM and 0.255 µM	0.323 µM and 0.255 µM	6.01	587	27.7	70.6	2020	27.2	29.9	96.8	27.5	39.3	488	
Cc1ccc(S(=O)(=O)N(/N=C(\N)Oc2ccc(Cl)cc2)C(=N)Oc2ccc(Cl)cc2)cc1	> 100	> 100	> 100 µM	> 100	> 100 µM	> 100 µM	> 100 µM	> 100											
c1ccc2c(CNCCCCCCNCc3cccc4ccccc34)cccc2c1	4.47	6.74	3.29 µM	3.39	23.9 µM	26.1 µM	30.6 µM	19.8											
COc1ccc2cccc(C(=O)c3ccc(C)c4c3CCC4)c2c1	85.3	> 100	> 100 µM	> 100	82.4 µM	77.7 µM	> 100 µM	53.3											
Cc1cnc[nH]c1=O		> 100	> 100 µM	> 100	> 100 µM	> 100 µM	> 100 µM	> 100											
O=C(CC(=O)N1N=C(c2ccccc2)C(N=Nc2ccc(C(=O)O)cc2)C1=O)Nc1ccc(F)cc1 (stereo not given)		> 100	> 100 µM	> 100	73.4 µM	63 µM	56.2 µM	> 100											
CC(C)[C@@H]1C=C(c2ccccc2)c2ccccc2C1C(C#N)(C#N)C(C)C (stereo not given in full)	> 100	> 100	> 100 µM	> 100	> 100 µM	> 100 µM	> 100 µM	> 100											
NCCCCCS(=O)(=O)O	> 100	> 100	> 100 µM	> 100	> 100 µM	> 100 µM	> 100 µM	> 100											
Cc1ccc2nc3c(C)c(Cl)c(=O)cc-3sc2c1	> 31.6	> 100	99.2 µM	> 100	67.4 µM	> 100 µM	> 100 µM	> 100											> 100
O=C(N/N=C(/c1nc2ccc(Cl)cc2[nH]c1=O)C(O)c1ccc(Cl)cc1Cl)c1ccncc1 (stereo not given)		> 100	> 100 µM	> 100	> 100 µM	> 100 µM	> 100 µM	> 100											
Cc1nc(C)c(C(=O)Nc2cccc3c2C(=O)NC3=O)cc1C(=O)Nc1cccc2c1C(=O)NC2=O	> 100	> 100	> 100 µM	> 100	> 100 µM	> 100 µM	> 100 µM	> 100											
COC(=O)C1=C(OC)c2cc3c(cc2C(c2cc(OC)c(OC)c(OC)c2)C1C(=O)OC)OCO3 (stereo not given)	> 100	> 100	> 100 µM	> 100	> 100 µM	> 100 µM	> 100 µM	> 100											
CCCCCCCCCCCC(=O)OCC1OC(n2cc(F)c(=O)[nH]c2=O)C(NC(=O)OCc2ccccc2)C(O)C1O (stereo not given)	41.2	42.3	35.4 µM	34.3	93 µM	50.9 µM	68.4 µM	43.5											
COc1ccc(/C=C2\Cc3ccccc3C2=O)cc1OC		> 100	> 100 µM	> 100	> 100 µM	> 100 µM	> 100 µM	> 100											
O=C(c1cc(O)ccc1O)c1ccccc1C(Cl)(Cl)Cl	> 100	> 100		> 100	> 100 µM	> 100 µM	> 100 µM	> 100											
CC1=NNC(=NCCN(C)C)C/C1=C/c1ccccc1Cl		> 100	> 100 µM	> 100	> 100 µM	> 100 µM	> 100 µM	> 100											
CN(C)C[C@H]1CC[C@@H](CN(C)C)C1=O	> 50	25.5	12.2 µM	12.5	23.1 µM	12.8 µM	16.6 µM	11											15.7
